Data: patent publication US9145399B2, “Substituted bicyclic triazole derivatives as gamma secretase modulators” (Janssen Pharmaceuticals, Inc., priority 2010, dated 2015)
Structures can show the parent of a compound that is named as a salt.

Key:
[1] = system: Aβ42; experiment: Screening for γ-secretase-modulating activity in SKNBE2 cells carrying APP 695 wild type: Aβ42 in cell supernatant (Alphalisa); type: cell-based; conditions: overnight incubation
Protocol: (§1) Pharmacology A) Screening of the Compounds of the Invention for γ-Secretase-Modulating Activity
(§2) Screening was carried out using SKNBE2 cells carrying the APP 695—wild type, grown in Dulbecco's Modified Eagle's Medium/Nutrient mixture F-12 (DMEM/NUT-mix F-12) (HAM) provided by Invitrogen (cat no. 10371-029) containing 5% Serum/Fe supplemented with 1% non-essential amino acids, 1-glutamine 2 mM, Hepes 15 mM, penicillin 50 U/ml (units/ml) en streptomycin 50 μg/ml. Cells were grown to near confluency.
(§3) The screening was performed using a modification of the assay as described in Citron et al (1997) Nature Medicine 3: 67. Briefly, cells were plated in a 384-well plate at 10^4 cells/well in Ultraculture (Lonza, BE12-725F) supplemented with 1% glutamine (Invitrogen, 25030-024), 1% non-essential amino acid (NEAA), penicillin 50 U/ml en streptomycin 50 μg/ml in the presence of test compound at different test concentrations. The cell/compound mixture was incubated overnight at 37° C., 5% CO2. The next day the media were assayed by two sandwich immuno-assays, for Aβ42 and Aβtotal.
(§4) Aβtotal and Aβ42 concentrations were quantified in the cell supernatant using the Aphalisa technology (Perkin Elmer). Alphalisa is a sandwich assay using biotinylated antibody attached to streptavidin coated donorbeads and antibody conjugated to acceptor beads. In the presence of antigen, the beads come into close proximity. The excitation of the donor beads provokes the release of singlet oxygen molecules that trigger a cascade of energy transfer in the acceptor beads, resulting in light emission. To quantify the amount of Aβ42 in the cell supernatant, monoclonal antibody specific to the C-terminus of Aβ42 (JRF/cAβ42/26) was coupled to the receptor beads and biotinylated antibody specific to the N-terminus of Aβ (JRF/AβN/25) was used to react with the donor beads. T quantify the amount of Aβtotal in the cell supernatant, monoclonal antibody specific to the N-terminus of Aβ (JRF/AβN/25) was coupled to the receptor beads and biotinylated antibody specific to the mid region of Aβ (biotinylated 4G8) was used to react with the donor beads.
(§5) To obtain the values reported in Table 3, the data are calculated as percentage of the maximum amount of amyloid Beta 42 measured in the absence of the test compound. The sigmoidal dose response curves were analyzed using non-linear regression analysis with percentage of the control plotted against the log concentration of the compound. A 4-parameter equation was used to determine the IC50.

[2] = system: Aβtotal; experiment: Screening for γ-secretase-modulating activity in SKNBE2 cells carrying APP 695 wild type: Aβtotal in cell supernatant (Alphalisa); type: cell-based; conditions: overnight incubation
Protocol: as §1, §2, §3, §4, §5

[3] = Homo sapiens, SKNBE2, SKNBE2 cells carrying APP 695 wild type
[4] = SKNBE2 cells carrying APP 695 wild type

Row | Compound | IC50 [1, 3] [nM] | IC50 ([2]; Homo sapiens) [nM] | melting point [°C] | IC50 [1, 4] [nM] | IC50 [2] [nM]
1 | COc1cc(Nc2nc3n(n2)CCC(C)C3c2ccc(F)cc2)ccc1-c1ccnc(C)c1 (racemic) [Compound 101, 8-(4-fluorophenyl)-5,6,7,8-tetrahydro-N-[3-methoxy-4-(2-methyl-4-pyridinyl)phenyl]-7-methyl-[1,2,4]triazolo[1,5-a]pyridin-2-amine] | 44 | > 10000 | 122.1 |  | 
2 | COc1cc(Nc2nc3n(n2)CCCC3c2ccc(F)cc2)ccc1-c1ccnc(C)c1 (stereo not shown) [Compound 1, 8-(4-fluorophenyl)-5,6,7,8-tetrahydro-N-[3-methoxy-4-(2-methyl-4-pyridinyl)phenyl]-[1,2,4]triazolo[1,5-a]pyridin-2-amine] | 16 | 7760 | 207.1 |  | 
3 | COc1cc(Nc2nc3c(-c4ccccc4Cl)cccn3n2)ccc1-c1ccnc(C)c1 [Compound 2, 8-(2-chlorophenyl)-N-[3-methoxy-4-(2-methyl-4-pyridinyl)phenyl]-[1,2,4]triazolo[1,5-a]pyridin-2-amine] | 7 | > 10000 | 186.7 |  | 
4 | COc1cc(Nc2nc3c(-c4ccc(F)cc4C(F)(F)F)cccn3n2)ccc1-n1cnc(C)c1 [Compound 6, 8-[4-fluoro-2-(trifluoromethyl)phenyl]-N-[3-methoxy-4-(4-methyl-1H-imidazol-1-yl)phenyl]-[1,2,4]triazolo[1,5-a]pyridin-2-amine] | 7 | 7410 | 238.4 |  | 
5 | COc1cc(Nc2nc3c(-c4ccccc4Cl)cccn3n2)ccc1-n1cnc(C)c1 [Compound 7, 8-(2-chlorophenyl)-N-[3-methoxy-4-(4-methyl-1H-imidazol-1-yl)phenyl]-[1,2,4]triazolo[1,5-a]pyridin-2-amine] | 7 | > 10000 | 235 |  | 
6 | COc1cc(Nc2nc3c(-c4ccccc4C(F)(F)F)nccn3n2)ccc1-n1cnc(C)c1 [Compound 8, N-[3-methoxy-4-(4-methyl-1H-imidazol-1-yl)phenyl]-8-[2-(trifluoromethyl)phenyl]-[1,2,4]triazolo[1,5-a]pyrazin-2-amine] | 32 | 7590 | 206.9 |  | 
7 | COc1cc(Nc2nc3n(n2)CCNC3c2ccccc2C(F)(F)F)ccc1-n1cnc(C)c1 (stereo not shown) [Compound 9, 5,6,7,8-tetrahydro-N-[3-methoxy-4-(4-methyl-1H-imidazol-1-yl)phenyl]-8-[2-(trifluoromethyl)phenyl]-[1,2,4]triazolo[1,5-a]pyrazin-2-amine] | 65 | > 10000 | 248 |  | 
8 | COc1nc(Nc2nc3c(-c4ccc(F)cc4C)nccn3n2)ccc1-n1cnc(C)c1 [Compound 11, 8-(4-fluoro-2-methylphenyl)-N-[6-methoxy-5-(4-methyl-1H-imidazol-1-yl)-2-pyridinyl]-[1,2,4]triazolo[1,5-a]pyrazin-2-amine] |  |  | 278.9 |  | 
9 | COc1nc(Nc2nc3c(-c4ccc(F)cc4C)nccn3n2)ccc1-c1ccnc(C)c1 [Compound 12, 8-(4-fluoro-2-methylphenyl)-N-(2-methoxy-2′-methyl[3,4′-bipyridin]-6-yl)-[1,2,4]triazolo[1,5-a]pyrazin-2-amine] |  |  | 268.2 |  | 
10 | COc1cc(Nc2nc3n(n2)CCCC3c2ccccc2C(F)(F)F)ccc1-n1cnc(C)n1 (stereo not shown) [Compound 15, 5,6,7,8-tetrahydro-N-[3-methoxy-4-(3-methyl-1H-1,2,4-triazol-1-yl)phenyl]-8-[2-(trifluoromethyl)phenyl]-[1,2,4]triazolo[1,5-a]pyridin-2-amine] | 79 | > 10000 | 233.2 |  | 
11 | COc1cc(Nc2nc3c(-c4cccc(C(F)(F)F)c4)cccn3n2)ccc1-n1cnc(C)c1 [Compound 20, N-[3-methoxy-4-(4-methyl-1H-imidazol-1-yl)phenyl]-8-[3-(trifluoromethyl)phenyl]-[1,2,4]triazolo[1,5-a]pyridin-2-amine] | 5 | 5890 | 175 |  | 
12 | COc1cc(Nc2nc3c(-c4cccc(C(F)(F)F)c4)nccn3n2)ccc1-n1cnc(C)c1 [Compound 22, N-[3-methoxy-4-(4-methyl-1H-imidazol-1-yl)phenyl]-8-[3-(trifluoromethyl)phenyl]-[1,2,4]triazolo[1,5-a]pyrazin-2-amine] | 40 | 7590 | 199 |  | 
13 | COc1cc(Nc2nc3c(-c4ccccc4C(F)(F)F)cccn3n2)ccc1-c1ocnc1C [Compound 23, N-[3-methoxy-4-(4-methyl-5-oxazolyl)phenyl]-8-[2-(trifluoromethyl)phenyl]-[1,2,4]triazolo[1,5-a]pyridin-2-amine] | 13 | > 10000 | 220.3 |  | 
14 | Cc1cc(-c2ccc(Nc3nc4n(n3)CCC[C@@H]4c3ccc(F)cc3C)cc2)ccn1 [Compound 93, (8R)-8-(4-fluoro-2-methylphenyl)-5,6,7,8-tetrahydro-N-[4-(2-methyl-4-pyridinyl)phenyl]-[1,2,4]triazolo[1,5-a]pyridin-2-amine] | 43 | > 10000 |  |  | 
15 | Cc1cc(-c2ccc(Nc3nc4n(n3)CCC[C@H]4c3ccc(F)cc3C)cc2)ccn1 [Compound 94, (8S)-8-(4-fluoro-2-methylphenyl)-5,6,7,8-tetrahydro-N-[4-(2-methyl-4-pyridinyl)phenyl]-[1,2,4]triazolo[1,5-a]pyridin-2-amine] | 56 | > 10000 |  |  | 
16 | COc1ccc(C2CCCn3nc(Nc4ccc(-c5ccnc(C)c5)c(OC)c4)nc32)cc1F (stereo not shown) [Compound 104, 8-(3-fluoro-4-methoxyphenyl)-5,6,7,8-tetrahydro-N-[3-methoxy-4-(2-methyl-4-pyridinyl)phenyl]-[1,2,4]triazolo[1,5-a]pyridin-2-amine.1.3HCl.2.3H2O] |  |  |  | 56 | > 10000
17 | COc1cc(Nc2nc3n(n2)CCCC3c2cccc(N(C)C)c2)ccc1-c1ccnc(C)c1 (stereo not shown) [Compound 111, 8-[3-(dimethylamino)phenyl]-5,6,7,8-tetrahydro-N-[3-methoxy-4-(2-methyl-4-pyridinyl)phenyl]-[1,2,4]triazolo[1,5-a]pyridin-2-amine] | 56 | > 10000 |  |  | 
18 | COc1cc(F)cc(C2CCCn3nc(Nc4ccc(-c5ccnc(C)c5)c(OC)c4)nc32)c1 (stereo not shown) [Compound 115, 8-(3-fluoro-5-methoxyphenyl)-5,6,7,8-tetrahydro-N-[3-methoxy-4-(2-methyl-4-pyridinyl)phenyl]-[1,2,4]triazolo[1,5-a]pyridin-2-amine] | 41 | > 10000 |  |  | 
19 | Cc1cc(-c2ccc(Nc3nc4n(n3)CCCC4c3cc(C(F)(F)F)ccc3C)cc2)ccn1 (stereo not shown) [Compound 144, 5,6,7,8-tetrahydro-N-[4-(2-methyl-4-pyridinyl)phenyl]-8-[2-methyl-5-(trifluoromethyl)phenyl]-[1,2,4]triazolo[1,5-a]pyridin-2-amine] | 28 | > 10000 |  |  | 
20 | COc1ccc(F)c(C2CCCn3nc(Nc4ccc(-c5ccnc(C)c5)c(OC)c4)nc32)c1 (stereo not shown) [Compound 172, 8-(2-fluoro-5-methoxyphenyl)-5,6,7,8-tetrahydro-N-[3-methoxy-4-(2-methyl-4-pyridinyl)phenyl]-[1,2,4]triazolo[1,5-a]pyridin-2-amine.1.7HCl] |  |  |  | 38 | > 10000
21 | COc1cc(Nc2nc3c(N4CCCC(C(F)(F)F)C4)cccn3n2)ccc1-c1ccnc(C)c1 (stereo not shown) [Compound 181, N-[3-methoxy-4-(2-methyl-4-pyridinyl)phenyl]-8-[3-(trifluoromethyl)-1-piperidinyl]-[1,2,4]triazolo[1,5-a]pyridin-2-amine.1.5HCl.1.7H2O] | 16 | 3980 |  |  | 
22 | COc1nc(Nc2nc3c(-c4ccc(F)cc4C)nccn3n2)ccc1-n1cnc(C)c1 [Compound 186, 8-(4-fluoro-2-methylphenyl)-N-[6-methoxy-5-(4-methyl-1H-imidazol-1-yl)-2-pyridinyl]-[1,2,4]triazolo[1,5-a]pyrazin-2-amine.HCl] |  |  |  | 1100 | > 10000
23 | COc1nc(Nc2nc3c(-c4ccc(F)cc4C)nccn3n2)ccc1-c1ccnc(C)c1 [Compound 187, 8-(4-fluoro-2-methylphenyl)-N-(2-methoxy-2′-methyl[3,4′-bipyridin]-6-yl)-[1,2,4]triazolo[1,5-a]pyrazin-2-amine.HCl] |  |  |  | 1620 | > 10000
